Experimental data taken from patent publication US6284918A, “Selective inhibitors of prostaglandin endoperoxide synthase-2” (priority 1999, dated 2001).
Read-outs that look alike come from different tables or passages of the source. Values belong to the compound of their own block, whether it stands above or below them.

Columns and labels:
[1] = system: apo- and holoPGHS-2; experiment: Inactivation of cyclooxygenase activity of apo- and holoPGHS-2 and reactivation by hydroxylamine; format: biochemical, human; conditions: 10 mM inhibitor, pH 8, 37° C.
Method: Apo or HoloPGHS-2 ([…]) was inactivated with a 1000-fold excess of 2-acetoxythioanisole (2) at 22.5° C. in 100 mM Tris-HCl buffer, pH 8 containing […] phenol for the indicated time period, and then hydroxylamine (80 mM) in 10 mM Tris-HCl buffer, pH 7.5 was added as indicated by the arrow. Periodic 0.16 μM aliquots of holoPGHS-2 (open circles), holoPGHS-2+2-acetoxythioanisole (open squares), apoPGHS-2 (closed circles), apoPGHS-2+2-acetoxythioanisole (closed squares) were analyzed for remaining cyclooxygenase activity.
(§1) Oxygen consumption was measured at 37° C. with a Gilson model 5/6 oxygraph (Gilson Medical Electronics, Inc., Middleton, Wis.) equipped with a clark electrode and a thermostated cuvette. […] Oxygen uptake was initiated by the addition of 100 μM sodium arachidonate, and the initial reaction velocity was determined from the linear portion of the oxygen uptake curve.
ApoPGHS-2 (5 μM) or apoPGHS-2 (5 μM), reconstituted with 2 equivalents of hematin in 100 mM Tris-HCl, pH 8 at 37° C. containing 500 μM phenol was treated with 2-acetoxy-1-thioanisole (10 mM). Periodically, 0.16 μM enzyme aliquots were analyzed for remaining cyclooxygenase activity as described earlier. […] Hydroxylamine hydrochloride (80 mM) in 10 mM Tris-HCl, pH 7.5 was then added to the incubation mixture and 0.16 μM enzyme aliquots were analyzed for reactivation of the inhibited cyclooxygenase-2. […]

[2] = target: T1, human PGHS-2 (Homo sapiens, UniProt P35354); experiment: Time- and concentration-dependent inhibition of human PGHS-2, TLC assay (3 h preincubation); format: biochemical; conditions: for IC50 / IC50 (PGHS-1)/IC50 (PGHS-2): Table 2; for IC50: PGHS-2 88 nM; for IC50 (PGHS-1)/IC50 (PGHS-2): selectivity ratio, 180 min
T1 construct: made in house; host or cells: insect cells (baculovirus vectors)
T1 sequence (P35354 18-604): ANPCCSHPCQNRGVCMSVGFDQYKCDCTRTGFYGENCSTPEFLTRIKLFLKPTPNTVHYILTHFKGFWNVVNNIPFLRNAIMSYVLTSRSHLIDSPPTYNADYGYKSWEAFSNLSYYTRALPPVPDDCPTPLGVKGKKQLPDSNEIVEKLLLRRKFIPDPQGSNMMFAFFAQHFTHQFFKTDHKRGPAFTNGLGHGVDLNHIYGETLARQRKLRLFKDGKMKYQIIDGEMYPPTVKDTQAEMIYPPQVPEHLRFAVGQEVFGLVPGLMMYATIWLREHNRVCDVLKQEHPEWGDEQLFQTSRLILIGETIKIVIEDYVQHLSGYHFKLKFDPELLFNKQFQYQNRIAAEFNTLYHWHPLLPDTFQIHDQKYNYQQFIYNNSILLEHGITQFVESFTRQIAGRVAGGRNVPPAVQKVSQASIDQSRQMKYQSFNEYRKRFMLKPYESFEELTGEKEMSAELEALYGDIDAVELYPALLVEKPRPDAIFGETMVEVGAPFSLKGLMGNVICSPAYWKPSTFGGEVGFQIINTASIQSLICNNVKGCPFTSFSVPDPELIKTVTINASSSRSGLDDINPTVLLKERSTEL
Method: (§2) Cyclooxygenase activity of ovine PGHS-1 (22 nM) or human PGHS-2 (88 nM) was assayed by TLC. Reaction mixtures of 200 μL consisted of hematin-reconstituted protein in 100 mM Tris-HCl, pH 8.0, 500 μM phenol, and [1-^14 C]arachidonic acid (50 μM, 57 mCi/mmol). For the time-dependent inhibition assay, hematin-reconstituted PGHS-1 (22 nM) or PGHS-2 (88 nM) was preincubated at room temperature for 2 hours and then at 0° C. for 1 hour with varying concentrations of inhibitor in DMSO followed by the addition of [1-^14 C]arachidonic acid (50 μM) for 30 seconds at 37° C. Reactions were terminated by solvent extraction in diethyl ether/methanol/1 M citrate, pH 4.0 (30:4:1). The organic phase was spotted on a TLC plate (Amersham Corp.). The plate was developed with ethyl acetate/methylene chloride/glacial acetic acid (75:25:1) at 4° C. Radiolabeled products were quantitated with a radioactivity scanner (Bioscan, Inc., Washington, D.C.).
(§3) conducted at room temperature for 3 hours. The cyclooxygenase reaction was
(§4) initiated by the addition of 14C-arachidonic acid (50 μM) to the
(§5) incubation mixtures at 37 C for 30 seconds.
(§6) conducted at room temperature for 3 hours. The cyclooygenase reaction was
(§7) initiated by the addition of ^14 C-arachidonic acid ([…]) to the
(§8) incubation mixtures at 37° C. for 30 sec.

[3] = system: PGHS-2 in activated RAW264.7 macrophages; experiment: Inhibition of PGHS-2 in activated RAW264.7 macrophages; format: cell-based, murine; conditions: RAW 264.7, LPS and γ-interferon; for inhibitory effect on PGHS-2 in activated macrophages compared with aspirin: FIGS. 14 and 15, aspirin 100 μM; for inhibition of cyclooxygenase activity in activated macrophages: FIG. 16
Method: RAW 264.7 cells were activated for 7 hours at 37° C. in serum free DMEM with LPS (500 ng/mL) and γ-interferon (10 U/mL).
RAW 264.7 cells were activated for 7 hours at 37° C. in serum free DMEM with LPS (500 ng/mL) and γ-interferon (10 U/mL). […] The cyclooxygenase reaction was initiated by adding [1-^14 C]-arachidonic acid (20 μM) for 15 min at 37° C.
The murine macrophage cell line RAW264.7 were seeded overnight for 30% confluency the following morning. Overnight DMEM and fetal bovine serum (FBS) was removed and 2 mL DMEM containing 1.5% FBS±500 ng/mL LPS and 10 units/mL interferon-γ were added for 7.5 hours at 37° C. […] Arachidonic acid metabolism was measured by adding 20 μM 14C-AA for 15 min at room temperature. Aliquots (200 μL) were removed into termination solution and run on TLC plates. In the case of 2-acetoxythioanisole (2), following 8 hours of activation, 500 μM 2 was added for the next 3.5 hours. After 11.5 hours of activation, 20 μM [1-^14 C]arachidonic acid was incubated with the cells for 20 minutes at room temperature, and total products were determined by TLC.

[4] = system: holoPGHS-2; experiment: pH dependence of time-dependent inhibition of cyclooxygenase activity of holoPGHS-2, oxygen uptake assay; format: biochemical, human
Method: ApoPGHS-2 (5 μM, 1.62 μg/μL) in 100 mM sodium phosphate buffer of pH 6, 7, 8, and 9 was reconstituted with 2 equivalents of hematin. Compound 2 (1000-fold excess) in DMSO was added to the reaction mixture. Periodically, 0.16 μM enzyme aliquots (final inhibitor concentration ~178 μM) were analyzed for remaining cyclooxygenase activity. Open circles, cyclooxygenase activity of holoPGHS-2 treated with 2 at pH 6; closed circles, cyclooxygenase activity of holoPGHS-2+2 at pH 7; open squares, cyclooxygenase activity of holoPGHS-2+2 at pH 8; closed squares, cyclooxygenase activity of holoPGHS-2+2 at pH 9. Control experiments in the absence of inhibitor remained linear throughout the assay period.
ApoPGHS-2 (5 μM, 1.62 μg/μL) in 100 mM sodium phosphate buffer of pH 6, 7, 8, and 9 was reconstituted with 2 equivalents of hematin. Compound 54 (181 μM) in DMSO was added to the reaction mixture. Periodically, 0.16 μM enzyme aliquots (final inhibitor concentration ~6 μM) were analyzed for remaining cyclooxygenase activity. […]
as §1, with “curve. […]” for “curve.”

[5] = target: T2, ovine PGHS-1 (Ovis aries, UniProt P05979); experiment: Time- and concentration-dependent inhibition of ovine PGHS-1, TLC assay (3 h preincubation); format: biochemical; conditions: for IC50: Table 2, PGHS-1 22 nM, 3 h at room temperature
T2 construct: PGHS-1 was purified from sheep seminal vesicles as described earlier; tissue Oxford Biomedical Research, Inc. (supplier of the sheep seminal vesicles); host or cells: sheep seminal vesicles
T2 sequence (P05979 25-600): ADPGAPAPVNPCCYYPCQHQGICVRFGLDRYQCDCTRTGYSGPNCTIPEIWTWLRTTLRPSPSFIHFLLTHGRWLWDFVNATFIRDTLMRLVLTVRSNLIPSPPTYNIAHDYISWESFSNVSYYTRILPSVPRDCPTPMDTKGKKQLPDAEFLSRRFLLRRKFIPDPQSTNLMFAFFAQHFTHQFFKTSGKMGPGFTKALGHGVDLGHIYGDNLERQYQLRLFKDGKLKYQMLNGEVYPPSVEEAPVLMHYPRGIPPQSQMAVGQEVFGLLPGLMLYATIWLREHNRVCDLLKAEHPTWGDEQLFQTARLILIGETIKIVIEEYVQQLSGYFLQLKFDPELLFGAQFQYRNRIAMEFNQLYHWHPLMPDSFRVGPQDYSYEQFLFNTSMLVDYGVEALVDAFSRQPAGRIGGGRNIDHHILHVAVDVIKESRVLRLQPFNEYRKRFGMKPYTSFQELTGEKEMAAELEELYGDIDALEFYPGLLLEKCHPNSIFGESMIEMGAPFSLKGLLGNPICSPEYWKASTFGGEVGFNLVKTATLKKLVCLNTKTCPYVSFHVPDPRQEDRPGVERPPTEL
Method: as §2, §3, §4, §5, §6, §7, §8

[6] = target: T3, oCOX-1 (Ovis aries, UniProt P05979); experiment: Time- and concentration-dependent inhibition of oCOX-1 (1 h incubation); format: biochemical, ovine
T3 construct: PGHS-1 was purified from sheep seminal vesicles as described earlier; tissue Oxford Biomedical Research, Inc. (supplier of the sheep seminal vesicles); host or cells: sheep seminal vesicles
T3 sequence (P05979 25-600): T2 sequence (P05979 25-600)
Method: (§9) ^a IC50 values were determined by incubating several inhibitor
(§10) concentrations in DMSO with purified hCOX-2 or oCOX-1 for 1 h at rt;
(§11) assays were run in duplicate. IC50 values are average of duplicate
(§12) determinations for each test compounds.

[7] = target: T4, hCOX-2 (Homo sapiens, UniProt P35354); experiment: Time- and concentration-dependent inhibition of hCOX-2 (1 h incubation); format: biochemical
T4 construct: made in house; host or cells: insect cells (baculovirus vectors)
T4 sequence (P35354 18-604): T1 sequence (P35354 18-604)
Method: as §9, §10, §11, §12

[8] = system: apoPGHS-1; experiment: Inhibition of cyclooxygenase activity of apoPGHS-1 and reactivation by hydroxylamine; format: biochemical, ovine
[9] = target: T2, ovine PGHS-1; experiment: Time- and concentration-dependent inhibition of ovine PGHS-1, TLC assay (3 h preincubation); format: biochemical; conditions: FIG. 5; 1 h at room temperature
[10] = Table 3, 1 h at rt, average of duplicates, read-out: IC50 oCOX-1
[11] = Table 3, 1 h at rt, average of duplicates, read-out: IC50 hCOX-2

SMILES: CSc1ccccc1OC(C)=O [Compound 2, 2-acetoxythioanisole]
inhibition of cyclooxygenase activity [1]: greater than 70% | IC50 ([2]; 3 h at room temperature): 250 µM | IC50 (PGHS-1)/IC50 (PGHS-2) [2]: > 100 | inhibitory effect on PGHS-2 in activated macrophages compared with aspirin [3]: greater inhibitory effect on PGHS-2 in activated macrophages than aspirin | inhibition of cyclooxygenase activity of holoPGHS-2 ([4]; FIG. 7, pH 9, 10 mM inhibitor): greatly inhibited

SMILES: CCCCCCCSc1ccccc1OC(C)=O [Compound 54, 2-Acetoxyphenylheptyl sulfide]
inhibition of cyclooxygenase activity of human holoPGHS-2 (in words) ([2]; FIG. 9, 3 h at room temperature): greatly inhibited | IC50 ([2]; 3 h at room temperature): 2 µM | IC50 (PGHS-1)/IC50 (PGHS-2) [2]: 3 | inhibition of cyclooxygenase activity in activated macrophages [3]: greatly inhibited | inhibitory effect on PGHS-2 in activated macrophages compared with aspirin [3]: greater inhibitory effect on PGHS-2 in activated macrophages than aspirin | pH dependency of inhibition of cyclooxygenase activity of human holoPGHS-2 ([4]; FIG. 10, pH 6, 7, 8, 9, 181 μM): greatest inhibition seen at pH 9 | IC50 [5]: 6 µM

SMILES: CCCCC#CCSc1ccccc1OC(C)=O [Compound 87, 2-Acetoxyphenyl-hept-2-ynyl sulfide]
inhibition of cyclooxygenase activity of human holoPGHS-2 (in words) ([2]; FIGS. 12 and 13, 1-16 μM): greatly inhibited | IC50 (PGHS-1)/IC50 (PGHS-2) [2]: 21 | inhibition of cyclooxygenase activity in activated macrophages [3]: greatly inhibited | IC50 [5]: > 17 µM

SMILES: CCCCCCCS(=O)(=O)c1ccccc1OC(C)=O [Compound 93, 2-Acetoxyphenylheptyl sulfone]
inhibition of PGHS-2 (in words) ([2]; table footnotes): very poor inhibitor | inhibition of PGHS-1 (in words) ([5]; table footnotes): very poor inhibitor

SMILES: CCCCCC#CCSc1ccccc1OC(C)=O [Compound 109, 2-Acetoxyphenyloct-2-ynyl sulfide]
IC50 [6, 10]: 33 µM | IC50 [7, 11]: 7 µM

SMILES: CCCCCCC#CCSc1ccccc1OC(C)=O [Compound 110, 2-Acetoxyphenylnon-2-ynyl sulfide]
IC50 [6, 10]: 50 µM | IC50 [7, 11]: 12.5 µM

SMILES: CCCCCCCC#CCSc1ccccc1OC(C)=O [Compound 111, 2-Acetoxyphenyldec-2-ynyl sulfide]
IC50 [6, 10]: > 50 µM | IC50 [7, 11]: 16 µM

SMILES: CCCC#CCCSc1ccccc1OC(C)=O [Compound 115, 2-Acetoxyephenylhept-3-ynyl sulfide]
IC50 [6, 10]: 18 µM | IC50 [7, 11]: 6.5 µM

SMILES: CCCCC#CCSc1ccccc1OC(N)=O [Compound 122, 2-Carbamoyloxyphenylhept-2-ynyl sulfide]
IC50 [6]: > 40 µM | IC50 [7]: > 40 µM

SMILES: CCCCC#CCSc1ccccc1OC(=O)CBr [Compound 123, 2-(α-bromoacetoxy)phenylhept-2-ynyl sulfide]
IC50 [6, 10]: 20 µM | IC50 [7, 11]: 26 µM

IC50 [6, 10]: > 40 µM | IC50 [7, 11]: > 40 µM
SMILES: CCCCC#CCSc1ccccc1OS(C)(=O)=O [Compound 124, 2-Methylsulfonyloxyphenylhept-2-ynyl sulfide]

reactivation after addition of hydroxylamine ([8]; hydroxylamine added): the enzyme activity is regenerated
SMILES: CC(=O)n1ccnc1 [N-acetylimidazole]
inhibition of cyclooxygenase activity of apoPGHS-1 [8]: inhibits the cyclooxygenase activity of apoPGHS-1

SMILES: CC(=O)Oc1ccccc1C(=O)O [aspirin]
inhibitory effect on PGHS-1 versus PGHS-2 [9]: greater inhibitory effect on PGHS-1 than PGHS-2
